According to US20160130554A1, “Reprogramming Mesenchymal Stromal Cells Into Hematopoietic Cells” (Wake Forest University Health Sciences, priority 2014, published 2016):

How the values were obtained:
[1] = tested on: SIPs; test: Culture conditions for reprogramming of SIPs (data not shown); format: cell-based, human; conditions: the two factors alone, preliminary studies
From the text: Cultures may be performed in defined serum-free media. This will to facilitate clinical grade production of hematopoietic cells. SIPS ([…]) may be plated in 100 mm gelatin-coated culture plates using serum-free TheraPEAK® MSCGM-CD Mesenchymal Stem Cell Medium (Lonza). Sixteen hours later they may be transduced overnight with the lentivector encoding RUNX1c at an MOI of ˜10. A control group may be transduced with an identical lentivector expressing EGFP to judge transduction efficiency (usually ˜80-90%) and to assess the precision of the cumate “switch”. The following day, the medium may be changed to DMEM/F12/+20% KOSR/1×NEAA/0.1 mM 2-ME/containing rhFGF2 (20 ng/ml) and rhIGFII (30 ng/ml). […] At the same time, media may be supplemented with cumate to turn on expression of RUNX1c (or EGFP) and with VPA (1 mM final concentration) and Bix-01294 (2 μM final concentration).
In order to facilitate differentiation of the HSC into all lineages or into hematopoietic cells having good engraftment potential, additional growth factors, such as TPO and BMP4, may be incorporated into the culture medium. […]

[2] = tested on: SIPs; test: In vitro reprogramming of SIPs, flow cytometry for hematopoietic surface markers; format: cell-based, human; conditions: the two small molecules alone, without RUNX1C
From the text: Heparinized human BM was obtained from healthy donors after informed consent, according to guidelines from the Office of Human Research Protection at the University of Nevada at Reno, Wake Forest Health Sciences, or from commercially available sources (AllCells, LLC, Alameda Calif.). Low density BM mononuclear cells (BMNC) were separated by Ficoll density gradient (1.077 g/ml Sigma, St. Louis, Mo.) and washed twice in Iscove's modified Dulbecco's medium (Invitrogen, Carlsbad, Calif.). Stro-1+ MSC were then isolated using anti-Stro-1 antibody (R&D Systems, Minneapolis, Minn.) and magnetic bead cell sorting (Miltenyi Biotec, Inc., Auburn, Calif.) according to manufacturer's guidelines. Stro-1+ cells were then cultured at low density in 0.02% gelatin (Sigma, St Louis, Mo.) coated flasks using Mesenchymal Stem Cell Growth Medium (MSCGM™, Lonza, Walkersville, Md.) in a humidified 37° C. incubator at 5% CO2.
BM-MSC were transduced on 6-well plates with Oct4- or RUNX1C-encoding lentiviral vector, alone or in combination (or an eGFP-encoding lentiviral vector as a control), at a multiplicity of infection (MOI) of 50 for each vector. Twenty four hours after transduction, the vector-containing media was removed and replaced with fresh MSCGM™ (Lonza). […]

For “rhFGF2: recombinant human FGF2 medium supplement”, the “reprogramming of SIPs to the hematopoietic lineage” value [1] was “some ability to support some degree of reprogramming”.
“rhIGFII: recombinant human IGF-II medium supplement” was tested, and the “reprogramming of SIPs to the hematopoietic lineage” value [1] was “some ability to support some degree of reprogramming”.
`CCCC(CCC)C(=O)O` [VPA, valproic acid] was tested, and the “expression of CD41 or CD34” value [2] was “did not induce significant expression”.
With `COc1cc2nc(N3CCCN(C)CC3)nc(NC3CCN(Cc4ccccc4)CC3)c2cc1OC` [Bix-01294] the “expression of CD41 or CD34” value [2] was “did not induce significant expression”.
